“Also recorded” adds a separate entry of the source.
Tested on: IFN+CD8+ T cells
Experiment: GF mice inoculated with human faecal samples or mouse B5 caecal contents, with or without antibiotics
Format: in vivo
Settings: antibiotics via drinking water or chloroform-treated caecal contents
Description: Next, it was investigated whether the human gut microbiota contained microbes which were able to induce IFN+CD8+ T cells (FIG. 4). Stool samples were collected from six healthy human volunteers (A˜F) (FIG. 5). The samples were individually administered orally into germ free […] mice kept in sterile isolators (five or six mice per group). Four weeks after oral inoculation of stool samples, mice were sacrificed, and small intestine and colons were harvested and investigated for IFN+CD8+ T-cells by FACS.
The mice were then orally administrated drinking water with or without Ampicillin, Metronidazole, Streptomycin or Tylosin (five mice per group) (FIG. 10). Alternatively, cecal contents of mouse B #5 were treated with 3% chloroform and orally inoculated into another five germ-free mice (‘B #5+Chrolo’). […] B #5 microbiota.
Human faecal samples were collected at the RIKEN institute and Keio University according to the study protocol approved by the institutional review board. Informed consent was obtained from each subject. Faecal samples and mouse B5 caecal contents were suspended in equal volume (w/v) of PBS containing 20% glycerol/PBS, snap-frozen in liquid nitrogen, and stored at −80° C. until use. The frozen stocks were thawed, suspended in TS broth, filtered through a 100 µm cell strainer, and orally inoculated into GF mice (approximately 5-60 mg/250 μL, per mouse). After 24 hours of inoculation, some mice were treated with ampicillin (1 g/L), metronidazole (1 g/L), tylosin (0.5 g/L) or streptomycin (0.5 g/L) via the drinking water. For chloroform treatment of B5 caecal contents, the caecal content suspension was mixed with chloroform (final concentration 3%) and incubated in a shaking water bath for 60 min followed by evaporation of chloroform via bubbling with N2 gas for 30 min. To isolate IFN+[…] T cell-inducing bacterial strains, caecal contents from GF+B5-Amp2 and GF+B5-Amp3 mice were serially dilated with PBS and seeded onto nonselective and selective agar plates (GAM, CM0151, and BBE). After culture under anaerobic conditions (80% N2, 10% H2, 10% CO2) in an anaerobic chamber (Coy Laboratory Products) at 37° C. for 2 to 4 days, individual colonies were picked, and the 16S rRNA gene region was amplified with universal primers (27F: 5′-[…]-3′ (SEQ ID NO:12), 1492R: 5′-[…]-3′ (SEQ ID NO:13)) and sequenced. Individual isolates in the culture collection were grouped as “strains” if their 16S rRNA gene sequences had 100% identity. The resulting strain sequences were compared to those in the RDP database and to OTUs observed in caecal samples from GF+B5−Amp2 and GF+B5−Amp3 to determine closely related species or strains and their corresponding OTUs. To prepare a bacterial mixture, bacterial strains were individually grown in GAM, CM0149, or EG both to confluence and equal volumes of media were mixed. […] The mixture of isolates was orally administered to GF mice (approximately 1-2×10^8 CFU of each strain in 250 μL medium per mouse). All mice receiving a given mixture of bacterial strains were maintained in a single gnotobiotic isolator. For administration of heat-killed bacteria, 11 strains cultured individually for 3 days were mixed, washed with autoclaved water, heat-killed at 121° C. for 30 min, and given to GF mice via the drinking water (2-10×10^7 equivalent CFU of each strain per 1 mL) for 4 weeks. C57BL/6 GF mice (6-12 weeks old) were used and analysed 3-4 weeks after bacterial colonization unless otherwise indicated.

CC[C@H]1OC(=O)C[C@@H](O)[C@H](C)[C@@H](O[C@@H]2O[C@H](C)[C@@H](O[C@H]3C[C@@](C)(O)[C@@H](O)[C@H](C)O3)[C@H](N(C)C)[C@H]2O)[C@@H](CC=O)C[C@@H](C)C(=O)/C=C/C(C)=C/[C@@H]1CO[C@@H]1O[C@H](C)[C@@H](O)[C@@H](OC)[C@H]1OC [Tyl, tylosin]
effect of treatment on IFN+CD8+ T cell induction by mouse B5 microbiota: substantial decrease in IFN+CD8 T cell induction

Cc1ncc([N+](=O)[O-])n1CCO [MNZ, metronidazole]
effect of treatment on IFN+CD8+ T cell induction by mouse B5 microbiota: substantial decrease in IFN+CD8 T cell induction

CC1(C)S[C@@H]2[C@H](NC(=O)[C@H](N)c3ccccc3)C(=O)N2[C@H]1C(=O)O [Ampicillin, ampicillin]
effect of treatment on IFN+CD8+ T cell induction by mouse B5 microbiota: enhanced induction
effect of treatment on IFN+CD8+ T cell induction by mouse B5 microbiota (listed as Amp): enhanced the induction of IFN+CD8 T cells; also recorded: enhanced the observed induction

ClC(Cl)Cl [chloroform]
effect of treatment on IFN+CD8+ T cell induction by mouse B5 microbiota: reduced the induction capability; also recorded: abrogated induction altogether
effect of treatment on IFN+CD8+ T cell induction by mouse B5 microbiota (listed as Chlo): abrogated it altogether

[H]/N=C(/N)N[C@H]1[C@H](O)[C@@H](O)[C@H](O[C@@H]2O[C@@H](C)[C@](O)(C=O)[C@H]2O[C@@H]2O[C@@H](CO)[C@H](O)[C@@H](O)[C@@H]2NC)[C@@H](N/C(N)=N\[H])[C@@H]1O [STM, streptomycin]
effect of treatment on IFN+CD8+ T cell induction by mouse B5 microbiota: substantial decrease in IFN+CD8 T cell induction
